{"source": "patent US7786142B2", "about": "“Heterocyclic compounds as pSTAT3/IL-6 inhibitors” (Orchid Research Laboratories, Ltd., priority 2005, dated 2010)", "key": {"NCIH460 cells": {"system": "NCIH460 cells", "assay": "Anti-cancer screen (MTT), NCIH460 cells", "assay_type": "cell-based", "settings": "Homo sapiens, NCI-H460, NCIH460, 48 hours, concentrations tested 0.01-100 μM", "outline": "(§1)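 Cells (5000/well) in DMEM with 10% FBS were treated for 48 hours with 0.01, 0.1, 1, 10 and 100 μM compound in triplicate. MTT read at 570 nm gave percent growth relative to untreated controls and pre-dose T0 wells, from which GI50, TGI and LC50 were derived.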"}, "MDAMB-231/U 251": {"system": "MDAMB-231/U 251", "assay": "Anti-cancer screen (MTT), MDAMB-231/U 251 cells", "assay_type": "cell-based", "settings": "MDAMB-231/U 251, 48 hours, concentrations tested 0.01-100 μM", "outline": "as §1"}, "IL-6": {"system": "IL-6", "assay": "IL-6 in culture supernatants of NCIH 460 cells (ELISA)", "assay_type": "cell-based, Human", "protocol": "Human Lung Cancer cell line (NCIH 460) is used for IL-6 measurement. 5000 cells/well were seeded in a 96 well plate and incubated in CO2 incubator at 37° C. for 24 hours. After 24 hours of incubation the medium from all wells were completed removed and added 100 μl of fresh DMEM containing 10% FCS. 100 μl of different concentrations of the drug were added and incubated for 5 hours in CO2 incubator at 37° C. After 5 hours of incubation the supernatants were collected and stored at −80° C. The concentration of IL-6 in the supernatant was measured using ELISA kit and the IC50 value of the compound was determined from the dose response curve, (See Table II)."}, "[1]": {"settings": "mouse, in vivo", "protocol": "All test compound/standard drugs were delivered by gavage in a volume of 10 ml/kg. Drugs were administered every day for single time to a period of 21 days. Control mice were treated with the drug solvent/vehicle. Tumor size is measured every alternate days and body weight is recorded daily.\n• a) Tumor Volume Inhibition (TVI): A TVI value higher than 80% is indicative of active compounds. • b) T/C % is also another indicator for the activity. A reproducible 20% T/C is considered as therapeutically active. • c) Log Cell Kill (LCK): A LCK value greater than 1 is indicative of active compounds. • d) Relative Tumor Volume (RTV), Tumor Delay and % Tumor volume change are also considered as valuable additional parameters for assessment. • e) Toxic effects of drug treatment were assessed by Body Weight Loss % • f) Lethal toxicity was defined as any death in treated groups occurring before any control death. Mice were inspected daily for mortality and toxic clinical signs."}, "[2]": {"settings": "read-out: LC50 (the source's name)"}}, "data": [{"smiles": "COc1ccc(CNC[C@H](O)COc2cccc3[nH]c4ccccc4c23)c(OC)c1", "note": "[Example 25, (2S)-1-(9H-carbazol-4-yloxy)-3-[(2,4-dimethoxybenzyl)amino]propan-2-ol]", "values": [{"measurement": "GI50", "setting": "NCIH460 cells", "value": 670, "unit": "nM"}, {"measurement": "IC (TGI)", "setting": "NCIH460 cells", "value": 55, "unit": "µM"}, {"measurement": "CC50", "setting": "NCIH460 cells; [2]", "value": 68, "unit": "µM"}, {"measurement": "GI50", "setting": "MDAMB-231/U 251", "value": 13, "unit": "µM"}, {"measurement": "IC (TGI)", "setting": "MDAMB-231/U 251", "value": 49, "unit": "µM"}, {"measurement": "CC50", "setting": "MDAMB-231/U 251; [2]", "value": 81, "unit": "µM"}, {"measurement": "inhibition at 0.1 µM", "setting": "IL-6; Homo sapiens, NCI-H460, 0.1 μM, NCIH 460, 5 hours", "value": 36, "unit": "%"}, {"measurement": "inhibition at 1 µM", "setting": "IL-6; Homo sapiens, NCI-H460, 1 μM, NCIH 460, 5 hours", "value": 50.9, "unit": "%"}, {"measurement": "IC50", "setting": "IL-6; Homo sapiens, NCI-H460, NCIH 460, 5 hours, read-out: IL-6 Inhibition IC50", "value": 780, "unit": "nM"}, {"measurement": "IL-6 inhibition", "setting": "IL-6; in words", "value": "very good IL-6 inhibition"}, {"measurement": "body weight loss", "setting": "[1]", "value": "no body weight loss was observed"}]}]}
